Experiments:
human PPARγ1 = target: T1, human PPARγ1 (Homo sapiens, UniProt P37231); assay: Measurement of human PPARγ1 binding activity ([3H]-compound A displacement); details: cell extract with 1.5 μg/ml full length hPPARγ1, 20 nM [3H]-compound A, 4° C., 16 hrs
T1 construct: made in house; host or cells: COS-1 cells transiently transfected with pMCMVneo-hPPARγ; crude supernatant of the lysate, not purified
T1 sequence (P37231 1-477 isoform P37231-2): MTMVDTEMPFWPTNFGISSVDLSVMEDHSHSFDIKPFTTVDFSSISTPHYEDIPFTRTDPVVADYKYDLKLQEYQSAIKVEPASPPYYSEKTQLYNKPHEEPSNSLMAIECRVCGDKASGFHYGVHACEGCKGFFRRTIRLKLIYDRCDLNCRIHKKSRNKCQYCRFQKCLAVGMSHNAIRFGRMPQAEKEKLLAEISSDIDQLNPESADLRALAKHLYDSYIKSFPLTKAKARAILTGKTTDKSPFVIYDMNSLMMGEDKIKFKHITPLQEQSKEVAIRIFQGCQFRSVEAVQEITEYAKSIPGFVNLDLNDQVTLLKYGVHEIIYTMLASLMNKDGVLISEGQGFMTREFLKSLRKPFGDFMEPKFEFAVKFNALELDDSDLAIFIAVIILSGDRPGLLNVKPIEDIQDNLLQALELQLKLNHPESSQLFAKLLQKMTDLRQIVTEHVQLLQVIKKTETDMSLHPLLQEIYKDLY
Description: A cell extract containing 1.5 μg/ml of full length hPPARγ1 prepared in Reference Example 7a, 20 nM [^3H]-compound A (16 Ci/mmol)(Amersham Pharmacia Biotech) and a test compound were reacted in TEGM buffer at 4° C. for 16 hrs. To the reaction mixture was added activated carbon (Sigma) coated with 140 μl of dextran (Amersham Pharmacia Biotech) and gelatin (Sigma), and the mixture was left standing at 4° C. for 10 min and centrifuged at 910×g for 10 min. After centrifugation, the radioactivity of 30 μl of supernatant was measured with Topcount (Packard). In addition, a test similar to the above was conducted for the non-use of the aforementioned test compound and for the use of 100 μM of compound A instead of the aforementioned test compound, and the radioactivity was determined.
The human PPARγ1 binding activity of the test compound was evaluated using percentages wherein the measured value of the radioactivity when 20 nM [^3H]-compound A alone was added was 100%, and the measured value of the radioactivity when 20 nM [^3H]-compound A and 100 μM of compound A were simultaneously added was 0%. Moreover, the IC50 value of the test compound was calculated based on the analysis of the compound concentration and the percentage using PRISM3.0 (Graph Pad, Inc.).
COS-1 cells were seeded in a 150 cm^2 tissue culture flask (Corning Inc.) at 5×10^6 cells, and cultured under 37° C. 5% CO2 conditions for 24 hrs. Transfection was performed using lipofectamine (GIBCO BRL). To be specific, 125 μl of lipofectamine, 100 μl of PLUS Reagent and 15 μg of hPPARγ expression plasmid (plasmid pMCMVneo-hPPARγ obtained in Reference Example 6a) were mixed with opti-MEM (GIBCO BRL) to give a transfection mixture. The transfection mixture (25 ml) was added to COS-1 cells and the cells were cultured under 37° C. 5% CO2 conditions for 3 hrs. Then 25 ml of DMEM medium (Nikken Biomedical Laboratory) containing 10% FCS treated with activated carbon (Sigma) was added to the cells and the cells were cultured under 37° C. 5% CO2 conditions. After 24 hrs., the medium was substituted with 50 ml of DMEM medium (Nikken Biomedical Laboratory) containing 5% FCS treated with activated carbon, and the cells were cultured under 37° C., 5% CO2 conditions. After 48 hrs, the transfected cells were recovered and washed with TEG buffer (10 mM Tris-HCl (pH 7.2), 50 mM EDTA, 10% glycerol). The cells were suspended in 1 ml TEGM buffer (10 mM Tris-HCl (pH 7.2), 1 mM EDTA, 10% glycerol, 7 μl/100 ml β-mercaptoethanol, 10 mM Na molybdate, 1 mM dithiothreitol, 2 tablets/100 ml Protease inhibitor Cocktail tablets (Boehringer Mannheim)) and, for cell lysis, frozen with liquid nitrogen and thawed on ice. To remove the debris of the cells, the extract was centrifuged at 228,000×g, 4° C. for 20 min. and the supernatant was preserved at −80° C. until use.

Structure (SMILES) | IC50 (human PPARγ1) [nM] | melting point [°C]
CCOP(=O)(/C=C/c1cn(-c2ccccc2)nc1OCc1ccc(OCc2csc(N3CCOCC3)n2)c(OC)c1)OCC [Example 191, diethyl (E)-2-{3-[(3-methoxy-4-{[2-(morpholin-4-yl)-1,3-thiazol-4-yl]methoxy}benzyl)oxy]-1-phenyl-1H-pyrazol-4-yl}ethenylphosphonate] | 810 | 93 to 94
CCOP(=O)(/C=C/c1cn(-c2ccccc2)nc1OCc1ccc(OCc2nc(-c3cccc(C(=O)O)c3)oc2C)c(OC)c1)OCC [Example 203, 3-[4-({4-[({4-[(E)-2-(diethoxyphosphoryl)ethenyl]-1-phenyl-1H-pyrazol-3-yl}oxy)methyl]-2-methoxyphenoxy}methyl)-5-methyl-1,3-oxazol-2-yl]benzoic acid] | 4.8 | 148 to 149
CCOP(=O)(/C=C/c1cn(-c2ccccc2)nc1OCc1ccc(OCc2nc(-c3cccc(C(=O)OC)c3)oc2C)c(OC)c1)OCC [Example 211, methyl 3-[4-({4-[({4-[(E)-2-(diethoxyphosphoryl)ethenyl]-1-phenyl-1H-pyrazol-3-yl}oxy)methyl]-2-methoxyphenoxy}methyl)-5-methyl-1,3-oxazol-2-yl]benzoate] | 27 | 141 to 142
CCc1nc(/C=C/c2cn(-c3ccccc3)nc2OCc2ccc(OCc3nc(-c4cccc(C(=O)O)c4)oc3C)c(OC)c2)cs1 [Example 224, 3-[4-({4-[({4-[(E)-2-(2-ethyl-1,3-thiazol-4-yl)ethenyl]-1-phenyl-1H-pyrazol-3-yl}oxy)methyl]-2-methoxyphenoxy}methyl)-5-methyl-1,3-oxazol-2-yl]benzoic acid] | 3.6 | 190 to 191
CCOP(=O)(/C=C/c1cn(-c2ccccc2)nc1OCc1ccc(OCc2nc(-c3cccc(C(N)=O)c3)oc2C)c(OC)c1)OCC [Example 239, diethyl (E)-2-(3-{[4-({2-[3-(carbamoyl)phenyl]-5-methyl-1,3-oxazol-4-yl}methoxy)-3-methoxybenzyl]oxy}-1-phenyl-1H-pyrazol-4-yl)ethenylphosphonate] | 61 | 127 to 128
CCOP(=O)(/C=C/c1cn(-c2ccccc2)nc1OCc1ccc(OCc2nc(-c3ccc(OC)c(C(=O)O)c3)oc2C)c(OC)c1)OCC [Example 252, 5-{4-({4-[({4-[(E)-2-(diethoxyphosphoryl)ethenyl]-1-phenyl-1H-pyrazol-3-yl}oxy)methyl]-2-methoxyphenoxy}methyl)-5-methyl-1,3-oxazol-2-yl}-2-methoxybenzoic acid] | 23 | 171 to 172
COc1cc(COc2nn(-c3ccccc3)cc2/C=C/C#N)ccc1OCc1nc(-c2ccccc2)oc1C [Example 282, (E)-3-(3-{[3-methoxy-4-(5-methyl-2-phenyl-1,3-oxazol-4-ylmethoxy)benzyl]oxy}-1-phenyl-1H-pyrazol-4-yl)-2-propenonitrile] | 120 | 184 to 185
CCOC(=O)/C=C/c1cn(-c2ccccc2)nc1OCc1ccc(OCc2nc(-c3ccccc3)oc2C)c(OC)c1 [Example 284, ethyl (E)-3-(3-{[3-methoxy-4-(5-methyl-2-phenyl-1,3-oxazol-4-ylmethoxy)benzyl]oxy}-1-phenyl-1H-pyrazol-4-yl)-2-propenoate] | 75 | 194 to 195
CCc1nc(/C=C/c2cn(-c3ccccc3)nc2OCc2ccc(OCc3nc(-c4cccc(C(=O)O)c4)oc3C)c(OC)c2)co1 [Example 307] | 7.4 | 169 to 171
CCOP(=O)(/C=C/c1cn(-c2ccccc2)nc1OCc1ccc(OCc2nc(/C=C/C(=O)O)oc2C)c(OC)c1)OCC [Example 315, (2E)-3-[4-({4-[({4-[(E)-2-(diethoxyphosphoryl)ethenyl]-1-phenyl-1H-pyrazol-3-yl}oxy)methyl]-2-methoxyphenoxy}methyl)-5-methyl-1,3-oxazol-2-yl]-2-propenoic acid] | 500 | 89 to 90
CCn1cnc(/C=C/c2cn(-c3ccccc3)nc2OCc2ccc(OCc3nc(-c4ccc(CC(=O)O)cc4)oc3C)c(OC)c2)c1 [Example 344, (4-{4-[(4-[({4-[(E)-2-(1-ethyl-1H-imidazol-4-yl)ethenyl]-1-phenyl-1H-pyrazol-3-yl}oxy)methyl]-2-methoxyphenoxy)methyl]-5-methyl-1,3-oxazol-2-yl}phenyl)acetic acid] | 46 | 194 to 196
